Source: US12458021B2, “Microbiocidal derivatives” (SYNGENTA CROP PROTECTION AG, priority 2019, dated 2025)

Tests used:
[1] = system: Glomerella lagenarium (Colletotrichum lagenarium); assay: Glomerella lagenarium (Colletotrichum lagenarium) / liquid culture (anthracnose); assay type: cell-based; conditions: Colletotrichum orbiculare, PDB potato dextrose broth, 24° C., 3-4 days after application, read-out: control of Glomerella lagenarium (inhibition of growth, photometric)
Outline: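 Conidia from cryogenic storage suspended in potato dextrose broth and added to DMSO compound solution in plates. Incubated at 24° C; growth inhibition read photometrically 3-4 days after application.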

[2] = system: Mycosphaerella graminicola (Septoria tritici); assay: Mycosphaerella graminicola (Septoria tritici) / liquid culture (Septoria blotch); assay type: cell-based; conditions: Zymoseptoria tritici, PDB potato dextrose broth, 24° C., 4-5 days after application, read-out: control of Mycosphaerella graminicola (inhibition of growth, photometric)
Outline: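 Conidia from cryogenic storage were mixed into potato dextrose broth and added to test compound in DMSO. Plates were incubated at 24° C, and growth inhibition was read photometrically 4-5 days after application.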

Pyrenophora teres = Pyrenophora teres / barley / leaf disc preventative (net blotch); assay type: in vivo; conditions: foliar, barley leaf segments cv. Hasso, inoculated 2 days after application, assessed 5-7 days after application, read-out: control of Pyrenophora teres (disease control compared to untreated)
Experimental: Example B13: Pyrenophora teres/Barley/Leaf Disc Preventative (Net Blotch) Barley leaf segments cv. Hasso are placed on agar in a multiwell plate (24-well format) and sprayed with the formulated test compound diluted in water. The leaf segments are inoculated with a spore suspension of the fungus 2 days after application. The inoculated leaf segments are incubated at 20° C. and 65% rh under a light regime of 12 h light/12 h darkness in a climate cabinet and the activity of a compound is assessed as disease control compared to untreated when an appropriate level of disease damage appears in untreated check leaf segments (5-7 days after application). […] […]-185.

[3] = system: Blumeria graminis f. sp. tritici (Erysiphe graminis f. sp. tritici); assay: Blumeria graminis f. sp. tritici / wheat / leaf disc preventative (powdery mildew on wheat); assay type: in vivo; conditions: foliar, wheat leaf segments cv. Kanzler, inoculated 1 day after application, assessed 6-8 days after application, read-out: control of Blumeria graminis f. sp. tritici (percent disease control compared to untreated)
Description: Example B4: Blumeria graminis f. sp. tritici (Erysiphe graminis f. sp. tritici)/Wheat/Leaf Disc Preventative (Powdery Mildew on Wheat) Wheat leaf segments cv. Kanzler are placed on agar in a multiwell plate (24-well format) and sprayed with the formulated test compound diluted in water. The leaf disks are inoculated by shaking powdery mildew infected plants above the test plates 1 day after application. […] […]-192.

[4] = system: Puccinia recondita f. sp. tritici; assay: Puccinia recondita f. sp. tritici / wheat / leaf disc preventative (brown rust); assay type: in vivo; conditions: foliar, wheat leaf segments cv. Kanzler, inoculated 1 day after application, assessed 7-9 days after application, read-out: control of Puccinia recondita f. sp. tritici, preventative (percent disease control compared to untreated)
Outline: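 Wheat leaf segments (cv. Kanzler) on agar were sprayed with formulated compound, then inoculated with spores 1 day later. Segments were incubated at 19 °C, 75% rh with 12 h light/dark. Percent disease control versus untreated was scored 7–9 days after application.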

[5] = system: Mycosphaerella arachidis (Cercospora arachidicola); assay: Mycosphaerella arachidis (Cercospora arachidicola) / liquid culture (early leaf spot); assay type: cell-based; conditions: PDB potato dextrose broth, 24° C., 4-5 days after application, read-out: control of Mycosphaerella arachidis (inhibition of growth, photometric)
Experimental: Example B8: Mycosphaerella arachidis (Cercospora arachidicola)/Liquid Culture (Early Leaf Spot) Conidia of the fungus from cryogenic storage are directly mixed into nutrient broth (PDB potato dextrose broth). After placing a (DMSO) solution of test compound into a microtiter plate (96-well format), the nutrient broth containing the fungal spores is added. The test plates are incubated at 24° C. and the inhibition of growth is determined photometrically 4-5 days after application. […] […]-180.

[6] = system: Phaeosphaeria nodorum (Septoria nodorum); assay: Phaeosphaeria nodorum (Septoria nodorum) / wheat / leaf disc preventative (glume blotch); assay type: in vivo; conditions: Parastagonospora nodorum, foliar, wheat leaf segments cv. Kanzler, inoculated 2 days after application, assessed 5-7 days after application, read-out: control of Phaeosphaeria nodorum (percent disease control compared to untreated)
Experimental: Example B6: Phaeosphaeria nodorum (Septoria nodorum)/Wheat/Leaf Disc Preventative (Glume Blotch) Wheat leaf segments cv. Kanzler are placed on agar in a multiwell plate (24-well format) and sprayed with the formulated test compound diluted in water. The leaf disks are inoculated with a spore suspension of the fungus 2 days after application. The inoculated test leaf disks are incubated at 20° C. and 75% rh under a light regime of 12 h light/12 h darkness in a climate cabinet and the activity of a compound is assessed as percent disease control compared to untreated when an appropriate level of disease damage appears in untreated check leaf disks (5-7 days after application). […] […]-190.

[7] = system: Monographella nivalis (Microdochium nivale); assay: Monographella nivalis (Microdochium nivale) / liquid culture (foot rot cereals); assay type: cell-based; conditions: PDB potato dextrose broth, 24° C., 4-5 days after application, read-out: control of Monographella nivalis (inhibition of growth, photometric)
Outline: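 Cryostored M. nivalis conidia mixed into potato dextrose broth and added to 96-well plates holding test compound in DMSO. Incubated at 24° C; growth inhibition read photometrically 4-5 days after application.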

[8] = system: Magnaporthe grisea (Pyricularia oryzae); assay: whole plant or invertebrate; assay type: in vivo; conditions: foliar, read-out: control of Magnaporthe grisea (percent disease control compared to untreated)
[9] = system: Botryotinia fuckeliana (Botrytis cinerea); assay: Botryotinia fuckeliana (Botrytis cinerea) / liquid culture (gray mould); assay type: cell-based; conditions: Vogels broth, 24° C., 3-4 days after application, read-out: control of Botryotinia fuckeliana (inhibition of growth, photometric)
Experimental: Example B2: Botryotinia fuckeliana (Botrytis cinerea)/Liquid Culture (Gray Mould) Conidia of the fungus from cryogenic storage are directly mixed into nutrient broth (Vogels broth). After placing a (DMSO) solution of test compound into a microtiter plate (96-well format), the nutrient broth containing the fungal spores is added. The test plates are incubated at 24° C. and the inhibition of growth is determined photometrically 3-4 days after application. […] […]-190.

Alternaria solani = Alternaria solani / tomato / leaf disc (early blight); assay type: in vivo; conditions: foliar, tomato leaf disks cv. Baby, inoculated 2 days after application, assessed 5-7 days after application, read-out: control of Alternaria solani (percent disease control compared to untreated)
Experimental: Example B1: Alternaria solani/Tomato/Leaf Disc (Early Blight) Tomato leaf disks cv. Baby are placed on agar in multiwell plates (24-well format) and sprayed with the formulated test compound diluted in water. The leaf disks are inoculated with a spore suspension of the fungus 2 days after application. The inoculated leaf disks are incubated at 23° C./21° C. […] […]-185.

COc1ccc(Nc2cc(F)cc(F)c2)nc1C(=O)NCc1cc(F)cc(F)c1 [Compound P-26, 6-(3,5-difluoroanilino)-N-[(3,5-difluorophenyl)methyl]-3-methoxy-pyridine-2-carboxamide]
≥ 80%: inhibition at 20 ppm [1] | inhibition at 20 ppm [2] | pest or weed control at 200 ppm (Pyrenophora teres) | pest or weed control at 200 ppm [3] | pest or weed control at 200 ppm [4] | inhibition at 20 ppm [5] | pest or weed control at 200 ppm [6] | inhibition at 20 ppm [7] | pest or weed control at 200 ppm [8]

COc1ccc(Nc2cc(F)cc(F)c2)nc1C(=O)NCc1ccc(Oc2ccccc2)cc1 [Compound P-57, 6-(3,5-difluoroanilino)-3-methoxy-N-[(4-phenoxyphenyl)methyl]pyridine-2-carboxamide]
≥ 80%: inhibition at 20 ppm [1] | inhibition at 20 ppm [2] | pest or weed control at 200 ppm (Pyrenophora teres) | pest or weed control at 200 ppm [3] | pest or weed control at 200 ppm [4] | inhibition at 20 ppm [5] | pest or weed control at 200 ppm [6] | inhibition at 20 ppm [7] | pest or weed control at 200 ppm [8]

CC1(NC(=O)c2cccc(Nc3cc(F)nc(F)c3)n2)CCCC1 [Compound P-120, 6-[(2,6-difluoro-4-pyridyl)amino]-N-(1-methylcyclopentyl)pyridine-2-carboxamide]
≥ 80%: inhibition at 20 ppm [1] | inhibition at 20 ppm [2] | inhibition at 20 ppm [9] | pest or weed control at 200 ppm [4] | inhibition at 20 ppm [7] | pest or weed control at 200 ppm [8]

COc1ccc(Nc2cc(F)cc(F)c2)nc1C(=O)NCC1(C(F)(F)F)CC1 [Compound P-62, 6-(3,5-difluoroanilino)-3-methoxy-N-[[1-(trifluoromethyl)cyclopropyl]methyl]pyridine-2-carboxamide]
≥ 80%: inhibition at 20 ppm [1] | inhibition at 20 ppm [2] | pest or weed control at 200 ppm (Alternaria solani) | pest or weed control at 200 ppm (Pyrenophora teres) | pest or weed control at 200 ppm [3] | pest or weed control at 200 ppm [4] | inhibition at 20 ppm [5] | pest or weed control at 200 ppm [6] | inhibition at 20 ppm [7] | pest or weed control at 200 ppm [8]

COc1ccc(Nc2ccc(C)c(Cl)c2)nc1C(=O)NC(C)(C)C [Compound P-151, N-tert-butyl-6-(3-chloro-4-methyl-anilino)-3-methoxy-pyridine-2-carboxamide]
≥ 80%: inhibition at 20 ppm [1] | inhibition at 20 ppm [2] | inhibition at 20 ppm [9] | inhibition at 20 ppm [7] | pest or weed control at 200 ppm [8]

COc1ccc(Nc2ccc(C)c(F)c2)nc1C(=O)NCC(C)(C)C [Compound P-142, N-(2,2-dimethylpropyl)-6-(3-fluoro-4-methyl-anilino)-3-methoxy-pyridine-2-carboxamide]
≥ 80%: inhibition at 20 ppm [1] | inhibition at 20 ppm [9]

Cc1ccc(Nc2cc(F)cc(F)c2)nc1C(=O)NC1CCC1(C)C (stereo not shown) [Compound P-175, 6-(3,5-difluoroanilino)-N-(2,2-dimethylcyclobutyl)-3-methyl-pyridine-2-carboxamide]
≥ 80%: inhibition at 20 ppm [1] | inhibition at 20 ppm [2] | inhibition at 20 ppm [9] | inhibition at 20 ppm [7]

COc1ccc(Nc2cc(F)cc(F)c2)nc1C(=O)NC1CCC1Oc1ccc(F)cc1 (stereo not shown) [Compound P-45, 6-(3,5-difluoroanilino)-N-[2-(4-fluorophenoxy)cyclobutyl]-3-methoxy-pyridine-2-carboxamide]
≥ 80%: inhibition at 20 ppm [1] | inhibition at 20 ppm [2] | pest or weed control at 200 ppm (Alternaria solani) | pest or weed control at 200 ppm (Pyrenophora teres) | pest or weed control at 200 ppm [3] | pest or weed control at 200 ppm [4] | inhibition at 20 ppm [5] | pest or weed control at 200 ppm [6] | inhibition at 20 ppm [7] | pest or weed control at 200 ppm [8]

CCOc1ccc(Nc2cc(F)cc(F)c2)nc1C(=O)NC(C)(C)C [Compound P-94, N-tert-butyl-6-(3,5-difluoroanilino)-3-ethoxy-pyridine-2-carboxamide]
≥ 80%: inhibition at 20 ppm [1] | inhibition at 20 ppm [2] | pest or weed control at 200 ppm (Alternaria solani) | pest or weed control at 200 ppm (Pyrenophora teres) | pest or weed control at 200 ppm [3] | inhibition at 20 ppm [5] | pest or weed control at 200 ppm [6] | inhibition at 20 ppm [7] | pest or weed control at 200 ppm [8]

COc1ccc(NCC(O)CO)nc1C(=O)NCC(C)(C)C (stereo not shown) [Compound P-42, 6-(2,3-dihydroxypropylamino)-N-(2,2-dimethylpropyl)-3-methoxy-pyridine-2-carboxamide]
≥ 80%: inhibition at 20 ppm [1] | inhibition at 20 ppm [9]

COc1ccc(Nc2cc(F)cc(F)c2)nc1C(=O)NCC(C)(C)C [Compound P-22, 6-(3,5-difluoroanilino)-N-(2,2-dimethylpropyl)-3-methoxy-pyridine-2-carboxamide]
≥ 80%: inhibition at 20 ppm [1] | inhibition at 20 ppm [2] | pest or weed control at 200 ppm (Alternaria solani) | pest or weed control at 200 ppm (Pyrenophora teres) | pest or weed control at 200 ppm [3] | pest or weed control at 200 ppm [4] | inhibition at 20 ppm [5] | pest or weed control at 200 ppm [6] | inhibition at 20 ppm [7] | pest or weed control at 200 ppm [8]

COc1ccc(Nc2cc(F)cc(F)c2)nc1C(=O)NC1CCc2cc(C(F)(F)F)ccc21 (stereo not shown) [Compound P-55, 6-(3,5-difluoroanilino)-3-methoxy-N-[5-(trifluoromethyl)indan-1-yl]pyridine-2-carboxamide]
≥ 80%: inhibition at 20 ppm [1] | inhibition at 20 ppm [2] | pest or weed control at 200 ppm (Alternaria solani) | pest or weed control at 200 ppm [4] | inhibition at 20 ppm [5] | pest or weed control at 200 ppm [6] | inhibition at 20 ppm [7] | pest or weed control at 200 ppm [8]

COc1ccc(Nc2ccc(C)c(Cl)c2)nc1C(=O)NCC(C)(C)C [Compound P-132, 6-(3-chloro-4-methyl-anilino)-N-(2,2-dimethylpropyl)-3-methoxy-pyridine-2-carboxamide]
≥ 80%: inhibition at 20 ppm [1] | inhibition at 20 ppm [2] | inhibition at 20 ppm [9] | inhibition at 20 ppm [7]
